According to the supplement of paper PMC10702517:
± gives the standard deviation.

Tests used:
[1] = chemical recovery from spiked human plasma; higher = better extraction; details: pooled human plasma
[2] = chemical recovery by SPE of plasma after PDMS sampling; higher = better extraction; details: pooled human plasma, extraction method: HLB SPE of plasma after PES
[3] = extraction method: SPE only (HLB 96-well), PES comparison experiment
[4] = extraction method: solvent precipitation (ACN + hexane)
[5] = extraction method: PES+SPE (3 d PDMS equilibration then HLB SPE)
[6] = extraction method: SPE only (HLB 96-well)
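For chemical recovery by SPE of plasma after PDMS sampling in this document: over 400 spiked chemicals quantified by LC-HRMS or GC-HRMS via internal standard calibration, recovery relative to spike mix added to unspiked plasma extract to correct matrix effects.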

Compound	chemical recovery [1, 3] [%]	chemical recovery [1, 4] [%]	chemical recovery by SPE of plasma ([2]; equilibration time (d): 1) [%]	chemical recovery by SPE of plasma ([2]; equilibration time (d): 3) [%]	chemical recovery by SPE of plasma ([2]; equilibration time (d): 6) [%]	chemical recovery [1, 5] [%]	chemical recovery [1, 6] [%]
O=C(c1ccc(OCCN2CCCCC2)cc1)c1c(-c2ccc(O)cc2)sc2cc(O)ccc12 [Raloxifene]	47.4 ± 8.5	63.5 ± 3.5	41.3 ± 2.1	46.1 ± 2.4	39.8 ± 2.8		
CC(C)(C)c1ccc(S(N)(=O)=O)cc1 [4-tert-Butylbenzenesulfonamide]			11 ± 0.85	17 ± 1.5	11.3 ± 1.4		
C[C@H]1C[C@@H]2[C@H]([C@@H](O)C[C@@]3(C)[C@H]2CC[C@]3(O)C(=O)CO)[C@@]2(C)C=CC(=O)C=C12 [6alpha Methylprednisolone]	53.6 ± 7.5		59.2 ± 5.8	57.1 ± 4.7	51.1 ± 6.5		
Cc1cccc(Nc2ccncc2S(=O)(=O)NC(=O)NC(C)C)c1 [Torasemide]	49.1 ± 3.4	73.1 ± 4.1	50.8 ± 5.4	54 ± 2.9	50.9 ± 2.3	38.9 ± 4.2	43.8 ± 3.6
c1ccc2c(c1)-c1ccc3ccc4cccc5cc-2c1c3c45 [Indeno(1,2,3-cd)pyrene]			1.57 ± 0.15	1.3 ± 0.43	1.16 ± 0.33		
CO/N=C(/C(=O)O)c1ccccc1CO/N=C(\C)c1cccc(C(F)(F)F)c1	35.7 ± 5.6	78.6 ± 6.2		38.9 ± 4.6	33.6 ± 9.2		
Cc1cccc(C)c1NC(=O)CS(=O)(=O)O [Dimethachlor CGA369-873]	45.2 ± 5	79.6 ± 8.1		23.6 ± 2.8	28.2 ± 8.7	42.4 ± 2.5	40.3 ± 3.8
CC(C)(Oc1ccc(Cl)cc1)C(=O)O [Clofibric acid]	61 ± 5.4	66.6 ± 7.9	53.1 ± 9.5	58.7 ± 6.2	51.5 ± 4.8	44.8 ± 1.8	44.7 ± 2.7
COc1cc([C@@H]2c3cc4c(cc3[C@@H](O[C@@H]3O[C@@H]5CO[C@@H](C)O[C@H]5[C@H](O)[C@H]3O)[C@H]3COC(=O)[C@H]23)OCO4)cc(OC)c1O [Etoposide]		35.5 ± 10	36.8 ± 3.4	40.9 ± 6.5	38.4 ± 0.53	54.9 ± 4.7	
CCCCCCCCCCCCCC(=O)NCCC[N+](C)(C)CCCS(=O)(=O)[O-] [Amidosulfobetaine-14]	36 ± 9.4	74.8 ± 5	25.7 ± 5.3	26.1 ± 6.5	25.2 ± 4.2		
CCC(=C(c1ccc(O)cc1)c1ccc(OCCN(C)C)cc1)c1ccccc1 [4-Hydroxytamoxifen]	42.6 ± 12	62.1 ± 1.3	13.5 ± 3.3	7.29 ± 0.7	3.71 ± 1.9	11.4 ± 2.5	46.8 ± 8.9
CC(CN1c2ccccc2Sc2ccccc21)N(C)C (configuration not stated) [Promethazin]	43.8 ± 7.1	74.2 ± 4.5	0.16 ± 0.11	0.172 ± 0.13	0.00932 ± 0.01	0.204 ± 0.12	55.2 ± 14
CC(C)NCC(O)c1ccc(NS(C)(=O)=O)cc1 (configuration not stated) [Sotalol]		75 ± 2.5		21.5 ± 3.9	30.9 ± 12		20.9 ± 5.4
Brc1ccc(Oc2ccc(Br)cc2Br)c(Br)c1 [BDE47]			1.38 ± 1	1.56 ± 0.066	1.34 ± 0.21		
c1cc2ccc3ccc4ccc5cccc6c(c1)c2c3c4c56 [Benzo(ghi)perylene]			2.59 ± 4.5	1.28 ± 1.1	1.37 ± 0.46		
CCc1cccc(C)c1N(C(=O)CS(=O)(=O)O)[C@@H](C)C(=O)O				28.5 ± 9.3	33.9 ± 4.1		
CCCC(Cn1cncn1)c1ccc(Cl)cc1Cl (configuration not stated) [Penconazole]		67.7 ± 4.2				51.3 ± 5.9	65.9 ± 1.6
C#CCOc1ccc(CCNC(=O)C(OCC#C)c2ccc(Cl)cc2)cc1OC (configuration not stated) [Mandipropamid]		82.4 ± 3.2				70.3 ± 10	58.4 ± 2.1
Cc1cccc2ccccc12 [1-Methylnaphthalene]							2.62 ± 2
Cc1cc(Cl)ccc1/N=C/N(C)C [Chlordimeform]		30.1 ± 3.3				28.8 ± 4.5	24.7 ± 4.2
O=C(O)c1cc(SSc2ccc([N+](=O)[O-])c(C(=O)O)c2)ccc1[N+](=O)[O-] [DTNB]		0.0596 ± 0.028				0.204 ± 0.051	
